Data on one compound can be found in article PMC7366380, “Discovery of a Potent and Selective Covalent Inhibitor and Activity-Based Probe for the Deubiquitylating Enzyme UCHL1, with Antifibrotic Activity” (Journal of the American Chemical Society, 2020).

Experiment [1] addresses DUBs and other proteins in HEK293 cells (Homo sapiens, UniProt Q96FW1). In words: In-cell proteome-wide competitive ABPP, HEK293: other DUBs and proteins. The conditions noted are these: replicates A-C.
For experiment [2], the target named is DUBs and other proteins in HEK293 cells (Homo sapiens, UniProt Q7L5N1). Described as above. Conditions: for Log2 reporter intensity values, COPS6: 20 nM ABP 2 (10 min), no competitor, TMT replicates.

“And” between values parts separate entries of the source, which are not always exact repeats. Identical values can stand only once.

Sequence of DUBs and other proteins in HEK293 cells (Homo sapiens, UniProt Q7L5N1) (Q7L5N1 whole entry): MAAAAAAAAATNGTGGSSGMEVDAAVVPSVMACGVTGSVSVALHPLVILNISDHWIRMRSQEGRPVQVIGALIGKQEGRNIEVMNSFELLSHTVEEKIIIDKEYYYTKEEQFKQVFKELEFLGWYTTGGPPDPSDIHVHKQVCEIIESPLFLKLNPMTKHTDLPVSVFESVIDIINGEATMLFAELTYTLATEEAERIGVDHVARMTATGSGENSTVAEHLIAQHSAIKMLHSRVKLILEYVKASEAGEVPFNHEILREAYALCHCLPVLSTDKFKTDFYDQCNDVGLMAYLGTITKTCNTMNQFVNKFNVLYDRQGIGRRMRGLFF
Sequence of DUBs and other proteins in HEK293 cells (Homo sapiens, UniProt Q96FW1) (Q96FW1 whole entry): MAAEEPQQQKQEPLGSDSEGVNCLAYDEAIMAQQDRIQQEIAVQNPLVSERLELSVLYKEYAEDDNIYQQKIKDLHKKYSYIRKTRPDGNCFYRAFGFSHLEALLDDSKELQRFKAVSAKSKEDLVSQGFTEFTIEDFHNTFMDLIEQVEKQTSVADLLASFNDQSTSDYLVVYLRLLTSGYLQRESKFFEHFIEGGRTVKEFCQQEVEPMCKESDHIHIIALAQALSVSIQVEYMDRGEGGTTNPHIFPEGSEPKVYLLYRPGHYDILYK

Consider `C#Cc1cnc2[nH]cc(-c3cccc4c3CCN4C(=O)[C@@H]3CCCN3C#N)c2c1` [Compound 2], for which the “Log2 reporter intensity values: OTUB1” value in experiment [1] (20 nM ABP 2 alone, DMSO substract (FC)) was 1.065 and 1.087 and 1.08. Besides, the “Log2 reporter intensity values” in experiment [1] (OTUB1, 20 nM ABP 2, DMSO subtracted) is 0.1206 and 0.06511 and 0.07959; in experiment [2] (COPS6, 20 nM ABP 2, DMSO subtracted, replicates A-C) it was 0.05567 and 0.07701 and -0.001766 and 0.03923 and 0.05472 and -0.001335. Also, the “Log2 reporter intensity values, COPS6” value in experiment [2] (All values) is 0.06809 and 0.08942 and 0.01065; in experiment [2] (DMSO subtracted) it was 0.05567 and 0.07701 and -0.001766. Further, the “Log2 reporter intensity values: COPS6” value in experiment [2] (20 nM ABP 2 alone, DMSO substract (FC), replicates A-C) is 1.039 and 1.055 and 0.9988. For the same compound, the “Log2 t-test Difference” value in experiment [2] (COPS6, ABP 2 - 20 nM) is on record as 0.04364.
